# Measurements reported in ChEMBL document CHEMBL3885881, “DrugMatrix”.
# Species on record: Rattus norvegicus
# Test: DrugMatrix - Regimen: Daily Repeat
# Assay type: toxicity, organism-based, Sprague-Dawley
# Parameters: regimen Daily Repeat, gender Male, age 6-8 weeks
# Settings: in vivo, po, route oral GAVAGE, vehicle 100 % WATER; for ABSOLUTE BASOPHIL / ABSOLUTE EOSINOPHIL / ABSOLUTE LYMPHOCYTE / ABSOLUTE MONOCYTE / ABSOLUTE SEGMENTED NEUTROPHIL / BASOPHIL / EOSINOPHIL / ERYTHROCYTE COUNT / HEMATOCRIT / HEMOGLOBIN / LEUKOCYTE COUNT / LYMPHOCYTE / MEAN CORPUSCULAR HEMOGLOBIN / MEAN CORPUSCULAR HEMOGLOBIN CONCENTRATION / MEAN CORPUSCULAR VOLUME / MONOCYTE / NEUTROPHIL / NUCLEATED RED BLOOD CELLS / PLATELET COUNT: tissue Blood; for ALANINE AMINOTRANSFERASE / ALBUMIN / ALKALINE PHOSPHATASE / ASPARTATE AMINOTRANSFERASE / BLOOD UREA NITROGEN / CARBON DIOXIDE / CHLORIDE / CHOLESTEROL / CREATINE PHOSPHOKINASE / CREATININE / GLUCOSE / LACTATE DEHYDROGENASE / LIPASE / PHOSPHORUS / POTASSIUM / SODIUM / TOTAL BILIRUBIN / TOTAL PROTEIN / URIC ACID: tissue Plasma
# [1] = 900 mg/kg, 120 h, dose level Low, time 5 day
# [2] = 5000 mg/kg, 72 h, dose level High, time 3 day
# [3] = 5000 mg/kg, 120 h, dose level High, time 5 day
smiles,measurement,setting,value
Clc1ccc(C(c2ccccc2Cl)C(Cl)Cl)cc1 (centres undefined) [MITOTANE],ABSOLUTE BASOPHIL,[1],0 CELLS/uL
same,ABSOLUTE EOSINOPHIL,[1],0 CELLS/uL
same,ABSOLUTE LYMPHOCYTE,[1],11920 CELLS/uL
same,ABSOLUTE MONOCYTE,[1],138 CELLS/uL
same,ABSOLUTE SEGMENTED NEUTROPHIL,[1],942 CELLS/uL
same,BASOPHIL,[1],0%
same,EOSINOPHIL,[1],0%
same,ERYTHROCYTE COUNT,[1],5.65 x10E6/uL
same,HEMATOCRIT,[1],36%
same,HEMOGLOBIN,[1],14.27 G/DL
same,LEUKOCYTE COUNT,[1],13 x10E3/uL
same,LYMPHOCYTE,[1],91.67%
same,MEAN CORPUSCULAR HEMOGLOBIN,[1],25.3 pg
same,MEAN CORPUSCULAR HEMOGLOBIN CONCENTRATION,[1],39.6 G/DL
same,MEAN CORPUSCULAR VOLUME,[1],63.73 fL
same,MONOCYTE,[1],1%
same,NEUTROPHIL,[1],7.33%
same,NUCLEATED RED BLOOD CELLS,[1],0 /100WBC
same,PLATELET COUNT,[1],1407.33 x10E3/uL
same,ALANINE AMINOTRANSFERASE,[1],52 u/L
same,ALBUMIN,[1],4.07 G/DL
same,ALKALINE PHOSPHATASE,[1],421.33 u/L
same,ASPARTATE AMINOTRANSFERASE,[1],89.67 u/L
same,BLOOD UREA NITROGEN,[1],13.67 mg/dL
same,CARBON DIOXIDE,[1],30.67 mmol/L
same,CHLORIDE,[1],100 MEQ/L
same,CHOLESTEROL,[1],71 mg/dL
same,CREATINE PHOSPHOKINASE,[1],382 u/L
same,CREATININE,[1],0.2 mg/dL
same,GLUCOSE,[1],148.67 mg/dL
same,LACTATE DEHYDROGENASE,[1],632.67 u/L
same,LIPASE,[1],11 u/L
same,PHOSPHORUS,[1],12.57 mg/dL
same,POTASSIUM,[1],6.42 MEQ/L
same,SODIUM,[1],142.8 MEQ/L
same,TOTAL BILIRUBIN,[1],0.13 mg/dL
same,TOTAL PROTEIN,[1],6.03 G/DL
same,URIC ACID,[1],2.17 mg/dL
same,ABSOLUTE BASOPHIL,[2],0 CELLS/uL
same,ABSOLUTE EOSINOPHIL,[2],124.33 CELLS/uL
same,ABSOLUTE LYMPHOCYTE,[2],15356 CELLS/uL
same,ABSOLUTE MONOCYTE,[2],296.33 CELLS/uL
same,ABSOLUTE SEGMENTED NEUTROPHIL,[2],556.67 CELLS/uL
same,BASOPHIL,[2],0%
same,EOSINOPHIL,[2],0.67%
same,ERYTHROCYTE COUNT,[2],5.76 x10E6/uL
same,HEMATOCRIT,[2],36.73%
same,HEMOGLOBIN,[2],14.3 G/DL
same,LEUKOCYTE COUNT,[2],16.33 x10E3/uL
same,LYMPHOCYTE,[2],94.67%
same,MEAN CORPUSCULAR HEMOGLOBIN,[2],24.83 pg
same,MEAN CORPUSCULAR HEMOGLOBIN CONCENTRATION,[2],38.93 G/DL
same,MEAN CORPUSCULAR VOLUME,[2],63.8 fL
same,MONOCYTE,[2],1.67%
same,NEUTROPHIL,[2],3%
same,NUCLEATED RED BLOOD CELLS,[2],0 /100WBC
same,PLATELET COUNT,[2],1407.33 x10E3/uL
same,ALANINE AMINOTRANSFERASE,[2],75.67 u/L
same,ALBUMIN,[2],3.93 G/DL
same,ALKALINE PHOSPHATASE,[2],512.67 u/L
same,ASPARTATE AMINOTRANSFERASE,[2],87 u/L
same,BLOOD UREA NITROGEN,[2],12.33 mg/dL
same,CARBON DIOXIDE,[2],32.67 mmol/L
same,CHLORIDE,[2],101 MEQ/L
same,CHOLESTEROL,[2],72.33 mg/dL
same,CREATINE PHOSPHOKINASE,[2],440.67 u/L
same,CREATININE,[2],0.19 mg/dL
same,GLUCOSE,[2],123.33 mg/dL
same,LACTATE DEHYDROGENASE,[2],189.33 u/L
same,LIPASE,[2],10.33 u/L
same,PHOSPHORUS,[2],11.37 mg/dL
same,POTASSIUM,[2],6.63 MEQ/L
same,SODIUM,[2],144.03 MEQ/L
same,TOTAL BILIRUBIN,[2],0.1 mg/dL
same,TOTAL PROTEIN,[2],6.13 G/DL
same,URIC ACID,[2],1.53 mg/dL
same,ABSOLUTE BASOPHIL,[3],0 CELLS/uL
same,ABSOLUTE EOSINOPHIL,[3],32.67 CELLS/uL
same,ABSOLUTE LYMPHOCYTE,[3],11464 CELLS/uL
same,ABSOLUTE MONOCYTE,[3],86.67 CELLS/uL
same,ABSOLUTE SEGMENTED NEUTROPHIL,[3],983.33 CELLS/uL
same,BASOPHIL,[3],0%
same,EOSINOPHIL,[3],0.33%
same,ERYTHROCYTE COUNT,[3],5.42 x10E6/uL
same,HEMATOCRIT,[3],34.3%
same,HEMOGLOBIN,[3],13.47 G/DL
same,LEUKOCYTE COUNT,[3],12.57 x10E3/uL
same,LYMPHOCYTE,[3],91.33%
same,MEAN CORPUSCULAR HEMOGLOBIN,[3],24.83 pg
same,MEAN CORPUSCULAR HEMOGLOBIN CONCENTRATION,[3],39.3 G/DL
same,MEAN CORPUSCULAR VOLUME,[3],63.2 fL
same,MONOCYTE,[3],0.67%
same,NEUTROPHIL,[3],7.67%
same,NUCLEATED RED BLOOD CELLS,[3],0 /100WBC
same,PLATELET COUNT,[3],1284 x10E3/uL
same,ALANINE AMINOTRANSFERASE,[3],63.67 u/L
same,ALBUMIN,[3],4.07 G/DL
same,ALKALINE PHOSPHATASE,[3],426.67 u/L
same,ASPARTATE AMINOTRANSFERASE,[3],73 u/L
same,BLOOD UREA NITROGEN,[3],15 mg/dL
same,CARBON DIOXIDE,[3],34.67 mmol/L
same,CHLORIDE,[3],97.33 MEQ/L
same,CHOLESTEROL,[3],99.67 mg/dL
same,CREATINE PHOSPHOKINASE,[3],400.67 u/L
same,CREATININE,[3],0.19 mg/dL
same,GLUCOSE,[3],133.33 mg/dL
same,LACTATE DEHYDROGENASE,[3],123.33 u/L
same,LIPASE,[3],11.33 u/L
same,PHOSPHORUS,[3],11.97 mg/dL
same,POTASSIUM,[3],6.85 MEQ/L
same,SODIUM,[3],141.7 MEQ/L
same,TOTAL BILIRUBIN,[3],0.2 mg/dL
same,TOTAL PROTEIN,[3],6.37 G/DL
same,URIC ACID,[3],1.57 mg/dL
